Reference: patent US11135309B2, “Poly(vinyl alcohol) nanocarriers” (THE REGENTS OF THE UNIVERSITY OF CALIFORNIA, priority 2015, dated 2021)
One block for each compound: values may come before it.

Key:
[1] = test system: SKOV-3 ovarian cancer cells; assay: cellular uptake (flow cytometry, confocal microscopy); assay type: cell-based
Description: The uptake profiles of DOX-loaded PPNs in SKOV-3 ovarian cancer cells were qualitatively observed by confocal microscopy. SKOV-3 cells were seeded in an 8-well slide. […] Then the cells were washed thrice with PBS buffer, fixed with 4% paraformaldehyde for 15 min. The nuclei were stained with DAPI. The slides were mounted with coverslips and observed by confocal microscopy.
The cellular uptake efficiency of PPNs in SKOV3 ovarian cancer cells was quantified with flow cytometry at different incubation time points (FIG. 19a). […] Additionally, a marked increase in porphyrin fluorescence from PPNs was visualized in the cytoplasm at 6 hrs, compared to that at 30 min after incubation.

[2] = blood cell count after the last dosage in the therapeutic study; assay type: in vivo, mice
Description: (§1) Tumor bearing mice (n=6-8) were intravenously administered PBS; Velcade® (0.8 mg/kg); BTZ-PVA (0.8, 1.2 mg/kg); DOX (4 mg/kg); DOX-DCMs (4 mg/kg); BTZ 0.8 mg/kg followed by DOX 4 mg/kg 24 h later; or BTZ-PVA 0.8 mg/kg followed by DOX-DCMs 24 h later every four days for a total of 6 doses. Data represent mean±SEM.

[3] = in vitro DOX release from PPNs by dialysis; assay type: physicochemical; conditions: PBS 37° C., within the first 5 hrs
Description: In vitro drug release profiles were carried out using the dialysis method. Aliquots of DOX-loaded PPNs solution were injected into a dialysis cartridge with a molecular weight cutoff of 3.5 kDa. The whole dialysis process was carried out at 37° C. with swirling at 70 rpm in the presence of 10 g/L activated charcoal in 1 L PBS buffer. The concentration of DOX remained in the dialysis cartridge at various time points was determined by absorbance measurement.

[4] = test system: subcutaneous SKOV-3 tumor; assay: phototherapy and tumor response; assay type: in vivo, mice
Description: Phototherapy and tumor response. Subcutaneous SKOV-3 tumor-bearing mice were used for in vivo therapeutic study when tumor volumes reached 80-120 mm^3 (designate as Day 0). The therapeutic efficacy and toxicity profiles of different PPNs formulations were evaluated. On day 0, all mice were randomly divided into seven groups (n=6). […] The DOX was given at the dose of 2.5 mg/kg, and PPNs was given at the dose of 2 mg/kg, calculated on the porphyrin content. The treatment was given every 5 days on day 0, 5, 10 and 15 for a total 4 doses. […] Tumor size and body weight were measured twice a week. Tumor volume was calculated using the equation (L×W^2)/2, where L is the longest and W is shortest in tumor diameters (mm). For humane reasons, mice were sacrificed when tumor volume reached 1000 mm^3, which was considered as the end point of survival data.

[5] = in vitro DOX release from PVA-LA NPs by dialysis; assay type: physicochemical; conditions: PBS, within 1 h
Description: Drug release study. DOX-loaded Cr-PVA-LA NPs solution was prepared to determine the in vitro drug release profile. The initial DOX concentration was 1.0 mg/mL, Aliquots of the DOX-loaded Cr-PVA-LA NPs solution were injected into dialysis cartridges with 3.5 kDa MWCO. The cartridges were dialyzed against 100 volume times PBS solution at 37° C. and rotator rate was set to 100 rpm. […] Values were reported as the means for each triplicate samples.
Loading and Triggered Release of DOX. […] The accumulated release results shown in FIG. 14 represent the total amount of DOX released from different sample. […] More than 50% of DOX were release within 1 h. […] It should be further noted that no burst release was observed even in the presence of NAC. The unique core-shell structure contributes to the constant release rate. This biodegradable PVA-LA NPs is a highly promising approach to controlled drug release.

[6] = serum chemistry (hepatic and renal function panel) in the therapeutic study; assay type: in vivo, mice; conditions: day 7 after the last dosage
Description: as §1

[7] = test system: subcutaneous MDA-MB-231 breast cancer xenografts; assay: in vivo therapeutic study, breast cancer xenograft; parameters: species or system nude mice; conditions: 5 mg/kg intravenous, every four day, 6 doses
Description: In vivo therapeutic study. Subcutaneous MDA-MB-231 breast cancer xenografts were implanted into nude mice as described above. […] On day 0, these mice were randomly divided into three groups, with five mice in each group. […] Tumor volume was calculated by the formula (L×W^2)/2, where L is the longest and W is the shortest in tumor diameters(mm). Anti-tumor efficacy in breast cancer xenograft mouse mode The anti-tumor effects of DOX-PVA-LA NPs after intravenous injection were evaluated in subcutaneous MDA-MB-231 tumor bearing mice.

[8] = in vivo toxicity evaluation; parameters: species or system mice; conditions: 5 days after the last dose
Description: Phototherapy and tumor response. Subcutaneous SKOV-3 tumor-bearing mice were used for in vivo therapeutic study when tumor volumes reached 80-120 mm^3 (designate as Day 0). The therapeutic efficacy and toxicity profiles of different PPNs formulations were evaluated. On day 0, all mice were randomly divided into seven groups (n=6). Mice were intravenously administered with PBS, blank PPNs, DOX·HCl and PPNs-DOX. The DOX was given at the dose of 2.5 mg/kg, and PPNs was given at the dose of 2 mg/kg, calculated on the porphyrin content. The treatment was given every 5 days on day 0, 5, 10 and 15 for a total 4 doses. […] Tumor size and body weight were measured twice a week. Tumor volume was calculated using the equation (L×W^2)/2, where L is the longest and W is shortest in tumor diameters (mm). For humane reasons, mice were sacrificed when tumor volume reached 1000 mm^3, which was considered as the end point of survival data. At day 5 after the last dosage, blood samples were collected from each group to test blood cell counts and serum chemistry.
In vivo toxicity evaluation. The potential toxicity of PPNs and the related formulations was assessed in all treated mice. The body weight change, blood cell counts and serum chemistry including renal and hepatic function panels were monitored. […]

[9] = cumulative BTZ release in PBS medium; assay type: physicochemical; conditions: PBS pH 7.4, within the first 3 h

Compound: COc1cccc2c1C(=O)c1c(O)c3c(c(O)c1C2=O)C[C@@](O)(C(=O)CO)C[C@@H]3O[C@H]1C[C@H](N)[C@H](O)[C@H](C)O1 [DOX, doxorubicin]
intracellular localization of DOX fluorescence ([1]; 30 min incubation): could be observed in the nuclei
intracellular localization of DOX fluorescence ([1]; 6 hrs incubation): completely transported into the nuclei
Hemoglobin ([2]; 4 mg/kg): 13.6 ± 0.9 g/dL
Neutrophil cells ([2]; 4 mg/kg): 0.5 ± 0.2 K/μl
Platelets ([2]; 4 mg/kg): 1618.2 ± 190.5 K/μL
RBC ([2]; 4 mg/kg): 8.3 ± 0.5 M/μl
WBC ([2]; 4 mg/kg): 5.8 ± 1.0 K/μl
DOX released [3]: 90%
tumor growth compared to PBS control ([4]; DOX 2.5 mg/kg iv days 0, 5, 10, 15, without light): did not exhibit obvious antitumor effect
survival compared to PBS control ([4]; without light): no obvious prolonged survival rate
DOX released [5]: More than 50%
ALT ([6]; 4 mg/kg): 42.6 ± 8.6 U/L
AST ([6]; 4 mg/kg): 167.7 ± 23.4 U/L
BUN ([6]; 4 mg/kg): 18.0 ± 2.6 mg/dL
Creatinine ([6]; 4 mg/kg): 0.2 ± 0.0 mg/dL
Total Bilirubin ([6]; 4 mg/kg): 0.1 ± 0.0 mg/dL
anti-tumor activity compared with PBS control [7]: significant anti-tumor activity
white blood cell counts [8]: certain decrease

Hemoglobin ([2]; 0.8 mg/kg): 14.6 ± 0.6 g/dL
Neutrophil cells ([2]; 0.8 mg/kg): 0.5 ± 0.4 K/μl
Platelets ([2]; 0.8 mg/kg): 1424.3 ± 146.2 K/μL
RBC ([2]; 0.8 mg/kg): 9.2 ± 0.5 M/μl
WBC ([2]; 0.8 mg/kg): 5.6 ± 1.3 K/μl
BTZ released [9]: about 80%
BUN ([6]; 0.8 mg/kg): 16.3 ± 2.1 mg/dL
Creatinine ([6]; 0.8 mg/kg): 0.2 ± 0.1 mg/dL
Total Bilirubin ([6]; 0.8 mg/kg): 0.1 ± 0.0 mg/dL
Compound: CC(C)C[C@H](NC(=O)[C@H](Cc1ccccc1)NC(=O)c1cnccn1)B(O)O [BTZ, [(1R)-3-methyl-1-({(2S)-3-phenyl-2-[(pyrazin-2-ylcarbonyl)amino]propanoyl}amino)butyl] boronic acid]
ALT ([6]; 0.8 mg/kg): 28.3 ± 3.3 U/L
AST ([6]; 0.8 mg/kg): 117.1 ± 26.4 U/L
